In ChEMBL document CHEMBL5154740, “Novel Aurora A and Protein Kinase C (α, β1, β2, and θ) Multitarget Inhibitors: Impact of Selenium Atoms on the Potency and Selectivity” (J Med Chem, 2022) one finds inhibition data, which are given here for 1 molecule.

Test [1] addresses Receptor tyrosine-protein kinase erbB-2 (Homo sapiens) (UniProt P04626). As to the kind of experiment: Inhibition of ERBB2 (unknown origin) at 50 nM by Z'LYTE screening method relative to control.
For test [2], the target named is T1, Aurora kinase C (Homo sapiens) (UniProt Q9UQB9).
T1 sequence (whole entry): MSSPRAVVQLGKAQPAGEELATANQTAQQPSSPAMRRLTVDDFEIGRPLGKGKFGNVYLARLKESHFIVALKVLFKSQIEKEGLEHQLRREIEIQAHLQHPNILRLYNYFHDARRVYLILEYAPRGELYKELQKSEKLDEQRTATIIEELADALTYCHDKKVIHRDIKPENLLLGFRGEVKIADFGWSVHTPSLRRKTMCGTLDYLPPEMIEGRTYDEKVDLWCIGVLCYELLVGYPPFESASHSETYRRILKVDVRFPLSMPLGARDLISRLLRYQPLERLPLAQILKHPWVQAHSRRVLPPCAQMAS
In words: Inhibition of AURC (unknown origin) at 50 nM by Z'LYTE screening method relative to control.

Test [3] deals with Cell division control protein 42 homolog (Homo sapiens) (UniProt P60953). In words: Inhibition of CDC42 delta (unknown origin) at 50 nM by Z'LYTE screening method relative to control.
Test [4] has as its target Protein kinase C theta type (Homo sapiens, UniProt Q04759). In words: Inhibition of PKCtheta (unknown origin) at 50 nM by Z'LYTE screening method relative to control.
Test [5] addresses Calcium/calmodulin-dependent protein kinase type 1D (Homo sapiens) (UniProt Q8IU85). As to the kind of experiment: Inhibition of CAMK1 delta (unknown origin) at 50 nM by Z'LYTE screening method relative to control.
Test [6] has as its target Protein kinase C alpha type (Homo sapiens) (UniProt P17252). In words: Inhibition of PKCalpha (unknown origin) at 50 nM by Z'LYTE screening method relative to control.
Test [7] concerns the target Mitogen-activated protein kinase 1 (Homo sapiens) (UniProt P28482). As to the kind of experiment: Inhibition of MAPK1 (unknown origin) at 50 nM by Z'LYTE screening method relative to control.
Test [8] deals with Ribosomal protein S6 kinase beta-1 (Homo sapiens) (UniProt P23443). As to the kind of experiment: Inhibition of p70S6K (unknown origin) at 50 nM by Z'LYTE screening method relative to control.
Test [9] deals with Vascular endothelial growth factor receptor 1 (Homo sapiens) (UniProt P17948). As to the kind of experiment: Inhibition of FLT1/VEGFR1(unknown origin) at 50 nM by Z'LYTE screening method relative to control.
For test [10], the target named is Serine/threonine-protein kinase PAK 1 (Homo sapiens) (UniProt Q13153). In words: Inhibition of PAK1 (unknown origin) at 50 nM by Z'LYTE screening method relative to control.
Test [11] deals with Glycogen synthase kinase-3 beta (Homo sapiens) (UniProt P49841). As to the kind of experiment: Inhibition of GSK3b (unknown origin) at 50 nM by Z'LYTE screening method relative to control.
The target in test [12] is Protein kinase C eta type (Homo sapiens, UniProt P24723). In words: Inhibition of PKCeta (unknown origin) at 50 nM by Z'LYTE screening method relative to control.
Test [13] has as its target Focal adhesion kinase 1 (Homo sapiens) (UniProt Q05397). As to the kind of experiment: Inhibition of FAK (unknown origin) at 50 nM by Z'LYTE screening method relative to control.
Test [14] concerns the target Proto-oncogene tyrosine-protein kinase receptor Ret (Homo sapiens) (UniProt P07949). In words: Inhibition of RET (unknown origin) at 50 nM by Z'LYTE screening method relative to control.
In test [15] the target is Mast/stem cell growth factor receptor Kit (Homo sapiens) (UniProt P10721). In words: Inhibition of KIT (unknown origin) at 50 nM by Z'LYTE screening method relative to control.
Test [16] addresses T2, Protein kinase C zeta type (Homo sapiens) (UniProt Q05513).
T2 sequence (whole entry): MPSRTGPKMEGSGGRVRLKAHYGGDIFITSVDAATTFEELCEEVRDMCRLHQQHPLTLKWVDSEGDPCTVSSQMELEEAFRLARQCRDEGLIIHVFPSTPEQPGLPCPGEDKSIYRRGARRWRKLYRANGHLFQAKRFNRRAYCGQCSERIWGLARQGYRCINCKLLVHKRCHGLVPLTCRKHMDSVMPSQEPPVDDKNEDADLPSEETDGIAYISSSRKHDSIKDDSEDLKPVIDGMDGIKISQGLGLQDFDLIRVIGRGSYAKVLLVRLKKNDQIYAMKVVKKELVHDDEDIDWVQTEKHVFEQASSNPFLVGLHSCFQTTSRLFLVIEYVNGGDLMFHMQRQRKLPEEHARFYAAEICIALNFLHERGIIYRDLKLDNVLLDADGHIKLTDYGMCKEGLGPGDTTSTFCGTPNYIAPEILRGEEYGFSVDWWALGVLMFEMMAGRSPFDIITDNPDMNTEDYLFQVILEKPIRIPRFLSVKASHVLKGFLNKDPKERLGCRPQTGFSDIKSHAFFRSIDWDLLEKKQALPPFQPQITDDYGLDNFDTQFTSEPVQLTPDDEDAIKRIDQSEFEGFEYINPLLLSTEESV
As to the kind of experiment: Inhibition of PKCzeta (unknown origin) at 50 nM by Z'LYTE screening method relative to control.

For test [17], the target named is Fibroblast growth factor receptor 1 (Homo sapiens) (UniProt P11362). As to the kind of experiment: Inhibition of FGFR1 (unknown origin) at 50 nM by Z'LYTE screening method relative to control.
Test [18] has as its target Tyrosine-protein kinase ABL1 (Homo sapiens) (UniProt P00519). As to the kind of experiment: Inhibition of ABL1 (unknown origin) at 50 nM by Z'LYTE screening method relative to control.
Test [19] deals with PI3-kinase p110-alpha/p85-alpha (Homo sapiens) (UniProt P27986+P42336). In words: Inhibition of p110alpha/p85alpha (unknown origin) at 50 nM by Z'LYTE screening method relative to control. The format is protein-complex assay.
For test [20], the target named is Dual specificity mitogen-activated protein kinase kinase 1 (Homo sapiens) (UniProt Q02750). As to the kind of experiment: Inhibition of MAP2K1 (unknown origin) at 50 nM by Z'LYTE screening method relative to control.
Test [21] addresses T3, Aurora kinase A (Homo sapiens) (UniProt O14965).
T3 sequence (whole entry): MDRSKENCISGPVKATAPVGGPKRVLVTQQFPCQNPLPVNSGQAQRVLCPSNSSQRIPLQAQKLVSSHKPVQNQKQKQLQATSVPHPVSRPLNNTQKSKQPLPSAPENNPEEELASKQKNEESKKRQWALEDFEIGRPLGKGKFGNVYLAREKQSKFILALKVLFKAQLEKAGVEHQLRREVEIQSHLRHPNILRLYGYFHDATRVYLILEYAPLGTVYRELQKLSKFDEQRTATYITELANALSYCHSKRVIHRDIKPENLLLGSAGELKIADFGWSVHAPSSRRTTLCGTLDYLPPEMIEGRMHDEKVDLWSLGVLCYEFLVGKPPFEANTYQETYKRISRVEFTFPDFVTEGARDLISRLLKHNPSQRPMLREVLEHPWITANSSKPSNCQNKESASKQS
In words: Inhibition of AURA (unknown origin) at 50 nM by Z'LYTE screening method relative to control.

The structures appear in SMILES notation.

Chain of Mitogen-activated protein kinase 1 (Homo sapiens) (P28482 whole entry): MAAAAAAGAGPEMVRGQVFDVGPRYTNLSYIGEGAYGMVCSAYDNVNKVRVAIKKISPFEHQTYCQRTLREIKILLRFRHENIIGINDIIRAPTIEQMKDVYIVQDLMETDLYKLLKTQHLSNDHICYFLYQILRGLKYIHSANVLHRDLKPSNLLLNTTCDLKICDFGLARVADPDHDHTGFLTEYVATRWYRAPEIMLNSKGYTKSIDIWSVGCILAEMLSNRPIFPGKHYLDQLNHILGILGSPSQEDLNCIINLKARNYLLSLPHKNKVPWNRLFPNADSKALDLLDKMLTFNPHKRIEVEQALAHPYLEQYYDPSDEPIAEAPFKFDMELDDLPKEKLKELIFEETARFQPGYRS
Chain of Serine/threonine-protein kinase PAK 1 (Homo sapiens) (Q13153 whole entry): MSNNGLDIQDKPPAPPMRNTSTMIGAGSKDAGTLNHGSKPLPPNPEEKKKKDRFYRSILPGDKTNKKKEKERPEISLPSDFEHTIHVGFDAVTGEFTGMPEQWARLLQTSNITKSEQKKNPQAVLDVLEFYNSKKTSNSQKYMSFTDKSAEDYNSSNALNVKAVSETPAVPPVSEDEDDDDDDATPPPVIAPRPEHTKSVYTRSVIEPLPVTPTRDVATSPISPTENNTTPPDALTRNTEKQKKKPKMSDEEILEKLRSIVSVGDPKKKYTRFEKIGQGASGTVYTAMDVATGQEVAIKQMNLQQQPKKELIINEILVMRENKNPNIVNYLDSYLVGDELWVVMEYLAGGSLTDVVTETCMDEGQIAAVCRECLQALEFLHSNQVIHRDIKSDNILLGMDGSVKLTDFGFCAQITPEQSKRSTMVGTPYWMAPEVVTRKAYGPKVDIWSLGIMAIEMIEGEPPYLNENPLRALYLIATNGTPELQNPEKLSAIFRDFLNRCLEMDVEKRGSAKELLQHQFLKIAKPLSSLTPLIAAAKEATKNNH
Chain of Fibroblast growth factor receptor 1 (Homo sapiens) (P11362 22-822 limits assumed): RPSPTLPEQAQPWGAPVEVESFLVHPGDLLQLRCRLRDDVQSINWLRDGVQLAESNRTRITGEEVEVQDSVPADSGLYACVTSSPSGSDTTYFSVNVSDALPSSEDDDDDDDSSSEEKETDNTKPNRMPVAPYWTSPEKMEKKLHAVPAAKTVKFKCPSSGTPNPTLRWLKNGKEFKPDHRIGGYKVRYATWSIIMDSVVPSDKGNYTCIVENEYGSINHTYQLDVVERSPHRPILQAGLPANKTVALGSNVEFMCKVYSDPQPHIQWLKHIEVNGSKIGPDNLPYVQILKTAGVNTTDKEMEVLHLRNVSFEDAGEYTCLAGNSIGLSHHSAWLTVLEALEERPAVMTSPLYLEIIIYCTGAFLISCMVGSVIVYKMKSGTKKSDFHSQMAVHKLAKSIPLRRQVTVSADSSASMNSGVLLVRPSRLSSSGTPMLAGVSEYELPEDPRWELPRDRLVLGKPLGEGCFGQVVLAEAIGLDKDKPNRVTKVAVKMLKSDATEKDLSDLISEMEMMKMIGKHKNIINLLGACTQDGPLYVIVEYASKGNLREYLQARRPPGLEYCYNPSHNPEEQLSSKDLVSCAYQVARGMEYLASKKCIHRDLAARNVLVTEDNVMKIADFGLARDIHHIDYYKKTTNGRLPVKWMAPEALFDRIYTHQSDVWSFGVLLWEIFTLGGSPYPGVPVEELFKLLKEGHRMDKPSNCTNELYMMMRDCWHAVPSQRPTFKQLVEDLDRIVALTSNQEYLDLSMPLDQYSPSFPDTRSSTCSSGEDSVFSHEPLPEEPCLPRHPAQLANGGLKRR
Chain of Protein kinase C eta type (P24723 whole entry): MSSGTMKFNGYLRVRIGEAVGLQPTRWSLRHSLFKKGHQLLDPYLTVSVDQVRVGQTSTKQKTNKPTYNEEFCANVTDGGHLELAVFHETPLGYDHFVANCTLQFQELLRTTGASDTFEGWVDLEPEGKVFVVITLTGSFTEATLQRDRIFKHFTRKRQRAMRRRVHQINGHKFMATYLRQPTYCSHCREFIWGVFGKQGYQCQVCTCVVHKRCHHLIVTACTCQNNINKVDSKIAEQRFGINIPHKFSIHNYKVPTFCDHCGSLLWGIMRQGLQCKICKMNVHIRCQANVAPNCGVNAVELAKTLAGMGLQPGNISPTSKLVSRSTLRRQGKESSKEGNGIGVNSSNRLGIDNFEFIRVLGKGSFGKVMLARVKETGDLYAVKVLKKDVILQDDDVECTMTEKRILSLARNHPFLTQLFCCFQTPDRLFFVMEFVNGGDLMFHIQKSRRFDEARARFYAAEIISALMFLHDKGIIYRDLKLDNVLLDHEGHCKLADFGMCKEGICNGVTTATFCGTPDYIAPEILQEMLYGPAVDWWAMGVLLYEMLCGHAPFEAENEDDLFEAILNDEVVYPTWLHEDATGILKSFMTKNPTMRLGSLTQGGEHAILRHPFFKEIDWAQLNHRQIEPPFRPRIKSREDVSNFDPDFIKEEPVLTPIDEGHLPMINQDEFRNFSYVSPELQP
Chain of Focal adhesion kinase 1 (Homo sapiens) (Q05397 2-1052 limits assumed): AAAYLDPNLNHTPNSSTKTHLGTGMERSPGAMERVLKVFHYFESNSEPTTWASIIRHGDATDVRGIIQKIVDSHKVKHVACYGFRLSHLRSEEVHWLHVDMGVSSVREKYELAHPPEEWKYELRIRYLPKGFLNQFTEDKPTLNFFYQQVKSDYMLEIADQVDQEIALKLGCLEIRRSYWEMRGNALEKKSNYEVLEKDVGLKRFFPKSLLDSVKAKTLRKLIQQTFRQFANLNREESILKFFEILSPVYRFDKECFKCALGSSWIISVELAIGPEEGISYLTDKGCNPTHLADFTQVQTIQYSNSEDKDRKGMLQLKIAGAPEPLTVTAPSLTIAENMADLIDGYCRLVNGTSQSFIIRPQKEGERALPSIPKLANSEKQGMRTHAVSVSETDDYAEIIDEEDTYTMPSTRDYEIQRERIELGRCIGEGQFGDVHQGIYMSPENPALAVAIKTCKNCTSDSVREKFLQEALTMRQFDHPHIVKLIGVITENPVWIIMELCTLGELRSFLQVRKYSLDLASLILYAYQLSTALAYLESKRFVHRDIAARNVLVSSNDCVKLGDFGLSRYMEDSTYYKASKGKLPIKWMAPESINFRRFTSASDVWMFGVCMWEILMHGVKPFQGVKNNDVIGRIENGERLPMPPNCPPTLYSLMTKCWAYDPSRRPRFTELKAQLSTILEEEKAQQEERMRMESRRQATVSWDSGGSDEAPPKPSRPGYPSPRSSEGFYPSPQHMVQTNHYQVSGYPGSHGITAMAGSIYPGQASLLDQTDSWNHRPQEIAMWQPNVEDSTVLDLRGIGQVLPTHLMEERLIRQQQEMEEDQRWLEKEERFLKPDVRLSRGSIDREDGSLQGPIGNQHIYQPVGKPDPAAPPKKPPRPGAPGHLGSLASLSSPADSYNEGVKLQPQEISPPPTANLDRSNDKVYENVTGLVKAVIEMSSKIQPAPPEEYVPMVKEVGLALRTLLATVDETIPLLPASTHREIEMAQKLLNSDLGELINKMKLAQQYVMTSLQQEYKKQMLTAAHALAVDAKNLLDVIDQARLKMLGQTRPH
Chain of Dual specificity mitogen-activated protein kinase kinase 1 (Homo sapiens) (Q02750 whole entry): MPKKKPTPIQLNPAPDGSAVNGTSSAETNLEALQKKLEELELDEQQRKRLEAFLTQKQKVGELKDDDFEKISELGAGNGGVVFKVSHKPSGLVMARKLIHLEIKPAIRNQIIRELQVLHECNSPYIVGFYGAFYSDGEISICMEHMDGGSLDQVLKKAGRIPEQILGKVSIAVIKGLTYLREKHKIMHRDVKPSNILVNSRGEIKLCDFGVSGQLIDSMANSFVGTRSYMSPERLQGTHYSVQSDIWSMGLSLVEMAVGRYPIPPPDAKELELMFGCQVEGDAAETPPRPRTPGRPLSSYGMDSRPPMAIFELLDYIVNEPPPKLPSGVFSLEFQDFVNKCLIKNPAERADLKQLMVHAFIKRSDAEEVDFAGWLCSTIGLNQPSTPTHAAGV
Chain of Glycogen synthase kinase-3 beta (Homo sapiens) (P49841 whole entry, looked up): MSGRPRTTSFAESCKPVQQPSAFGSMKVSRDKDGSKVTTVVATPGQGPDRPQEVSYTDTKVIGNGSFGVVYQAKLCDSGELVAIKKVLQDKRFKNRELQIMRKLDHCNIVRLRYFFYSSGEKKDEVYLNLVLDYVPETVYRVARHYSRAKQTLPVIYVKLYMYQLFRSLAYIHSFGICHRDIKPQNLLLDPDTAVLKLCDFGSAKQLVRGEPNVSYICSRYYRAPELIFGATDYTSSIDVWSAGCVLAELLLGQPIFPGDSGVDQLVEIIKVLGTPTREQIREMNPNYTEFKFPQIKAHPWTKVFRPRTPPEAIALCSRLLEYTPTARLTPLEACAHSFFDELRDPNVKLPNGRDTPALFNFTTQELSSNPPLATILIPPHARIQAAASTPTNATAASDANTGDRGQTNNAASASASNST

One may read the inhibition as the percentage by which the read-out fell short of the control. Take `O=C1c2ccccc2CN1c1nc(NC2CCCCC2)c2nc[nH]c2n1`: the inhibition was determined as 0% in [1]; 9% in test [2]; 0% in test [3]; 0% in test [4]; 0% in [5]; 14% in test [6]. The inhibition in test [7] is 2%; in test [8] it was 1%; in test [9], 0%; in [10], 0%; in test [11] it was 7%; in test [12], 0%. Also, the inhibition in test [13] turned out to be 0%; in [14], 10%; in test [15], 1%; in [16], 9%; in test [17], 0%; in [18], 0%. Besides, the inhibition in test [19] came to 0%; in test [20] it was 4%; in [21], 4%.
